82 molecules from a melting point compilation (Tetko et al.; mined from patent text by program, amines drawn as free bases though some values may be those of a salt) can be followed below.

SMILES strings stand for the structures. Some results are limits rather than exact numbers.

Broadly, the melting point is the temperature of the solid-liquid transition.

Molecule `CCCCc1nn(-c2cc(NC(C)=O)ccc2Cl)c(=O)n1Cc1ccc(-c2cc(CCC)ccc2S(=O)(=O)NC(=O)c2ccccc2Cl)cc1F` returned a melting point of 144 to 146 °C.
`N#Cc1ccc2c(c1)C(=O)N(C1CCC(=O)NC1=O)C2=O` (configuration not stated) gave a melting point of over 260 °C.
The value for `CNc1cc(N(C)S(=O)(=O)c2ccc(N)cc2)nc(NC)n1` was 79 to 80 °C; that for `CCCc1c(O)c(C(C)=O)c(C)c2c1OC(C)(C)CC2C` (configuration not stated) was 74 to 75 °C.
Then `O=[N+]([O-])c1c(Cl)cc(Cl)cc1CO`, with 133 to 134 °C; and `NC(=O)c1ncn2c1[C@@H]1CCN1C(=O)c1ccccc1-2`, with 228 to 230 °C; and `CC(=O)OC1CSC(Oc2ccc(C)nc2-c2ccoc2)C(OC(C)=O)C1OC(C)=O` (configuration not stated), with 117 °C.
Then `Cc1ccc(-c2ccc(C(=O)Nc3ccc4cc(CN5CCCC5)cnc4c3C)cn2)cc1`, with 178 to 180 °C.
`COC(=O)Cc1ccc(OCCNC(=O)C2Cc3ccccc3N2S(=O)(=O)c2ccc(-c3cc(C)ccc3OC)cc2)cc1` (configuration not stated) displayed a melting point of 57 to 60 °C.
`CCCCC1=C(c2ccc(F)cc2)C(=NO)CC1` showed a melting point of 115 to 116 °C.
Then `CCOC(=O)C1=C(C)N=C(SCc2ccc(OC)cc2)N(C(=O)c2ccc([N+](=O)[O-])cc2)C1c1cccc([N+](=O)[O-])c1` (configuration not stated), with 121 to 123 °C; and `CC1(C)CC(N2CCCC2)=CC(=C(C#N)C(O)C#N)C1` (configuration not stated), with 246 to 247 °C; and `CCOC(=O)C1=Cc2ccc(OCc3ccccc3)cc2OCC1`, with 75 to 76 °C.
Then `CN1C(C(=O)Nc2cncc(Cl)n2)=C(O)c2ccc3ccccc3c2S1(=O)=O`, with 209 to 210 °C; and `COC(=O)c1ccc(OCc2ccccc2)cn1`, with 90 to 90.5 °C.
Then `C[C@H]1[C@H](NSc2ccccc2[N+](=O)[O-])C(=O)N1OCc1ccccc1`, with 97 to 100 °C; and `O=C(CCC(=O)N1CCC[C@H]1C(=O)O)[C@H](Cc1ccccc1)OCc1ccccc1`, with 114 to 115 °C; and `CCOC(=O)C(C(=O)CCC(C)C)C1c2ccccc2C(=O)N1c1ccc2ccc(F)nc2n1` (configuration not stated), with 140 °C.
Molecule `O=[N+]([O-])c1ccc(/C=C/c2ccccn2)cc1` displayed a melting point of 136 to 139 °C.
The value for `CC[Si](CC)(CC)OC1CCCc2cnc3ccc(OCc4ccccc4[N+](=O)[O-])cc3c21` (configuration not stated) was 110 to 111 °C; that for `CCN(CC)CCCCNc1ncc2c(n1)NC(=O)N(c1cc(OC)cc(OC)c1)C2` was 203 to 207 °C.
Then `Fc1cccc(Cl)c1C1C=C(c2ccc(Cl)cc2)Nc2ncnn21` (configuration not stated), with 213 to 215 °C; and `O=C1C2Cc3c(ncn3Cc3ccccc3)CN2C(=S)N1c1ccccc1` (configuration not stated), with 224 to 226 °C.
For `COc1ccc(COc2cccc(C=O)c2)cc1`, the melting point came out at 78 °C.
The value for `Cc1ccc(C(=O)C(O)[C@H]2OC[C@@H](n3cc(I)c(=O)n(C(=O)c4ccc(C)cc4)c3=O)O2)cc1` (some centres not stated) was 166 to 168 °C; that for `CC(OCc1ccc(-c2ccc(Cl)cc2)cc1)(C(=O)O)C(F)(F)F` (configuration not stated) was 135 to 136 °C.
Then `CC(=O)Nc1ccc(C=CC(=O)N2CCc3c([nH]c4ccccc34)C2c2ccc3c(c2)OCO3)cc1` (configuration not stated), with 185 °C.
Then `CSc1ccc2c(c1)C(=O)c1cc3ccccc3cc1C2=O`, with 195 to 196 °C.
`CN(C)c1nc(N)nc2c1sc(=O)n2C1OC(CO)C(O)C1O` (configuration not stated) had a melting point of over 112 °C.
In turn, `Cc1cccc(C2c3ccccc3S(=O)(=O)N2C)c1` (single isomer, unassigned; (+)) displayed a melting point of 154 °C.
The value for `Cc1nc2ccc(OC3SCC(O)C(O)C3O)cc2s1` (configuration not stated) was 184 °C.
Turning to `Cc1ccccc1CC(=NC#N)NC(NC(=O)CCCc1cccs1)C(C)(C)C` (configuration not stated), the melting point is 154 to 155 °C.
The value for `CN1CC(CNC(=O)C(F)(F)F)c2c[nH]c3cccc(c23)C1=O` (configuration not stated) was 174 to 177 °C.
Molecule `O=C(O)CCc1cccc2c1C[C@@H](CCCCc1ccccc1)O2` gave a melting point of 110 to 111 °C.
`Cc1ccc(-n2c(-c3sc(Nc4ccccc4)nc3-c3ccccc3)nc3ccccc3c2=O)cc1` gave a melting point of 225 to 228 °C.
The molecule `CC(C)c1ccc(Nc2cccc3c2C(=O)N(C2CCC(=O)NC2=O)C3=O)cc1` (configuration not stated) returned a melting point of 138 to 140 °C.
In turn, `Cc1ccc(-c2c(Cl)ncnc2NS(=O)(=O)c2ccc(C(C)(C)CO)cc2)cc1` returned a melting point of 227 to 228 °C.
Then `Cc1cccc2c1nc1n2CC(c2ccccn2)S1` (configuration not stated), with 96 °C; and `CCOC(=O)/C=C/C=C(c1ccc(Cl)cc1)c1ccc(Cl)cc1`, with 98 to 100 °C.
`Cn1cc(C2=C(c3cn(CCCOS(C)(=O)=O)c4ccccc34)C(=O)NC2=O)c2ccccc21` had a melting point of 202 to 204 °C.
In the case of `CCCCC#CC(C)(O)c1ccc(-c2ccc(F)cc2)cc1` (configuration not stated), the melting point was 62 °C.
For the molecule `CN(C)c1ccccc1CC(=O)N1C[C@@H]2[C@H](F)CCC(c3ccccc3)(c3ccccc3)[C@@H]2C1`, the melting point came out at 186 °C.
Then `CC1(CC2CCCC2)Cc2cc(CC(=O)O)c(Cl)c(Cl)c2C1=O` (configuration not stated), with 146 to 148 °C.
Regarding `Cc1nc2c(C=O)cccn2c1[N+](=O)[O-]`, the melting point fell in the range of 182 to 184 °C.
As to `CCNc1cccc2c(S(=O)(=O)Nc3ncc(Br)nc3OC)cccc12`, the melting point lay within 216 to 218 °C.
Then `CCOc1nn(Cc2ccc(OCc3cncc(-c4ccccc4)c3)cc2)cc1CCC(=O)O`, with 92 to 93 °C; and `Cc1cccc(C)c1NCCCC(=O)N(C(=O)c1ccc(Cl)cc1)[C@@H](Cc1ccccc1)C(=O)O`, with 153 to 155 °C; and `CC1(C)CCC(=O)Nc2cc(Nc3ncc(Cl)c(Nc4ccc(N5CCOCC5)cc4OCCC#N)n3)ccc21`, with 150 to 156 °C.
Then `CC(C)(Cc1ccccc1)C(NC(=O)c1ccc(Cl)cc1)Nc1c(Nc2cccnc2Cl)c(=O)c1=O` (configuration not stated), with 236 to 237 °C; and `CCCCC(CC)COCCCN1C(C)=CC(=C(C#N)C(=O)OCC(CC)CCCC)C=C1C` (configuration not stated), with 69 to 70 °C.
`COc1ccc2nc3ccc(OC)cc3c(C(=O)Oc3c(Br)cccc3Br)c2c1` gave a melting point of 245 to 247 °C.
For `Cc1cc(-c2ccc(-c3ccccc3)c(-c3ccc4c(c3)C(C)(C)CCC4(C)C)c2)ccc1C(=O)O`, the melting point is 130 to 132 °C.
Then `CCS(=O)(=O)c1ccc(N)cc1S(=O)(=O)NC(C)(C)C`, with 193 to 195 °C.
`CCS(=O)c1cc2c(cc1OC)CCn1c3c(c(Br)c1-2)CCCCN(C(C)(C)C)C3=O` (configuration not stated): the melting point lay within 140 to 145 °C.
In turn, `CCCc1nn(C)c2c(OCCOc3ccc(CC(OCC)C(=O)O)cc3)nc(CC)nc12` (configuration not stated) gave a melting point of 140 to 142 °C.
Consider `CN(C)c1c(S(=O)(=O)C(F)(F)F)c(C#N)nn1-c1c(Cl)cc(C(F)(F)F)cc1Cl`, for which the melting point lay in the range of 178 to 179 °C.
The value for `Cc1ccc(S(=O)(=O)C2=CC3CCC2N3C(=O)OC(C)(C)C)cc1` (configuration not stated) was 144 to 147 °C.
`N#Cc1ccc(-c2cn(-c3ccc(C#N)cc3)c(CC3(O)C=CC=CN3)n2)cc1` (configuration not stated) came in with a melting point of 167 to 175 °C.
With `Cc1ccc(NC(=O)N2CCN(C(=O)c3ccc(Nc4ccnc5cc(C(F)(F)F)ccc45)cc3)CC2)cc1`, the melting point lay in the range of 280 to 282 °C.
For the molecule `CN(Cc1ccc(S(C)=O)s1)C(=O)C12CC3CC(CC(C3)C1)C2` (configuration not stated), the melting point is 91.5 to 93.5 °C.
On to `c1ccc(C2(N3CCC(n4c(OC5CCNCC5)nc5ccccc54)CC3)CCCCCC2)cc1`, for which the melting point lay within 114 to 118 °C.
`Cc1cccc([N+](=O)[O-])c1CNc1cccn2c(Cl)c(C)nc12` registered a melting point of 142 to 144 °C.
The value for `CSc1nccn1N=Cc1cc(C(C)(C)C)c(O)c(C(C)(C)C)c1` was 181 to 183 °C; that for `CCOCc1cc(Cn2cc(C3c4ccccc4C=Cc4ccccc43)c(=S)[nH]c2=O)cc(C(=O)O)c1` was over 240 °C.
`CN(C)C(C)(C)c1ccc(-c2nc(Nc3ccc(-n4cncn4)cc3)ncc2C#N)cc1` had a melting point of 235 to 237 °C.
The value for `COc1ccc(CNc2nnc(N3CCC(O)CC3)c3ccc(C#N)cc23)cc1Cl` was 172 to 174 °C.
Then `COc1ccc(Cn2ncn(-c3ccc(N4CCN([C@H](C)[C@](O)(Cn5cncn5)c5ccc(F)cc5F)CC4)cc3)c2=O)cc1`, with 178 to 179 °C.
The value for `COc1cc(N)c(Cl)cc1-c1nn(C2CC3CCC(C2)N3C)c(=O)o1` (configuration not stated) was 208 °C; that for `CN(Cc1cc(C(F)(F)F)cc(C(F)(F)F)c1)C(=O)c1c(-c2ccc(F)cc2)c2cccnc2c(=O)n1C` was 211 to 212 °C.
Consider `CC1=C(CC(=O)O)c2cc(F)ccc2C1`, for which the melting point fell in the range of 164 to 166 °C.
Then `CCc1cc2c(Cl)cc(F)c(-n3c(=O)cc(C(F)(F)F)n(N)c3=O)c2o1`, with 145 to 147 °C; and `COc1cc2c3ccc(OC)c(OC)c3n(Cc3ccc(C(F)(F)F)cc3)c2cc1OC`, with 145 to 146 °C; and `N#CC1(c2cccc(OCc3ccc4ccc(F)cc4c3)c2)CCOCC1`, with 106 to 107 °C.
In turn, `C/C=C\NC(=O)c1c(Cl)cccc1[Si](C)(C)C` displayed a melting point of 101 to 102 °C.
Then `COc1cc(C(C)(C)O)c(O)c2c1C(C)(C)CCC2(C)C`, with 140 °C.
`CC(C)(O)COC1CCNCC1` came in with a melting point of 80 to 82 °C.
The value for `O=C(O)c1ccccc1C(=O)N1Cc2cccn2Cc2ccccc21` was 210 to 214 °C.
`COc1cc(OC)nc(NC(=O)NS(=O)(=O)c2c(Cl)cccc2CN2CCOC2=O)n1` registered a melting point of 135 to 136 °C.
The value for `COC(=O)c1ccc(F)c([N+](=O)[O-])c1` was 58.5 to 59.5 °C.
Then `CCOC(=O)C1CCCN2CCC3c4cc(Cl)ccc4NC3C12` (configuration not stated), with 124 °C; and `O=C(O)CCC(=O)OCc1ccccc1[N+](=O)[O-]`, with 63 to 65 °C; and `CN1C(=O)CCC2(C)c3ccc(NC(=O)c4ccccc4)cc3CCC12` (single isomer, unassigned; (+)), with 220 to 222 °C.
